# According to publication PMC3509528, “Preliminary Structure-Activity Relationship on Theonellasterol, a New Chemotype of FXR Antagonist, from the Marine Sponge Theonella swinhoei” (Marine Drugs, 2012):
# Target: T1, FXR (farnesoid-X-receptor; pCMVSPORT-FXR) (Homo sapiens, UniProt Q96RI1)
# T1 construct: gene NR1H4; FXR expressed from pCMVSPORT-FXR, co-transfected with pSG5-RXR in HepG2 cells; p(hsp27)TKLUC luciferase reporter (IR1 element), Renilla normalisation
# T1 sequence (Q96RI1 1-486): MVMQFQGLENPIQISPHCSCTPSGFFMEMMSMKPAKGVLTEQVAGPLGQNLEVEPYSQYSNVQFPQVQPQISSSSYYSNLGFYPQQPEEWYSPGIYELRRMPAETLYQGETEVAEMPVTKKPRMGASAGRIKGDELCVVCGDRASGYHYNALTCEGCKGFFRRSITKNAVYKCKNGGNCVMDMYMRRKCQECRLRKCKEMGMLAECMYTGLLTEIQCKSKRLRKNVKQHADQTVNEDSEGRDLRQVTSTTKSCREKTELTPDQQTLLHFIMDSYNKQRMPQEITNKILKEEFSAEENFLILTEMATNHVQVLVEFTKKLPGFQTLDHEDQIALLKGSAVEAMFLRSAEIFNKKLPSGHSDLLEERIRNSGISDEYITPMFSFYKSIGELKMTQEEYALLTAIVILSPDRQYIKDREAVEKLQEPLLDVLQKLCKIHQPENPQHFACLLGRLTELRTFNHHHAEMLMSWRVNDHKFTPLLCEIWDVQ
# T1 sequence (P19793 1-462 partner): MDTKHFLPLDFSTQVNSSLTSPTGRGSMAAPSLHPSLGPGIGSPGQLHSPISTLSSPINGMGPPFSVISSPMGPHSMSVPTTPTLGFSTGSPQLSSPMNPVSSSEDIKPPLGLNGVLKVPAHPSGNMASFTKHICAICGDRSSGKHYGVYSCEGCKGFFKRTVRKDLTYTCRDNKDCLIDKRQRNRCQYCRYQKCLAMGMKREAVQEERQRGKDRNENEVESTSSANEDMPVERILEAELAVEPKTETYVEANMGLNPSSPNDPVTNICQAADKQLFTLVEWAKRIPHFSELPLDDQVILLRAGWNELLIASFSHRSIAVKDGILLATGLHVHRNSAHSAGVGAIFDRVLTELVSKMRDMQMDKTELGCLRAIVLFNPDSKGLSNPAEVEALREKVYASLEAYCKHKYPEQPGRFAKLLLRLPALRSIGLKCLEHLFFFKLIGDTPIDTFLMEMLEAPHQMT
# Test: luciferase reporter transactivation assay in transfected HepG2, antagonist mode
# Format: cell-based
smiles,measurement,value
"C=C1[C@@H](O)CC[C@@]2(C)[C@H]1CCC1=C3CC[C@H]([C@H](C)CC[C@H](CC)C(C)C)[C@@]3(C)CC[C@@H]12 [compound 1, theonellasterol]",EC50,~50 µM
